US20050096395A1, “Methods of treating attention deficit/hyperactivity disorder (adhd)” (priority 2002, published 2005)

Experiments:
[1] = tested on: patients with AD/HD and comorbid tic disorder; test: randomized, double-blind, placebo-controlled trial in patients with AD/HD and comorbid tic disorder; format: in vivo, human; settings: patients 7-15 years; 1.5-2 mg/kg/day; after 8 weeks of treatment
From the text: This study is a randomized, double-blind, placebo-controlled trial of parallel groups. […] Before entry into the study, each patient undergoes a detailed clinical evaluation by a psychiatrist and/or a psychologist. The diagnosis of AD/HD and comorbid tic disorder is made on the basis of this interview. Entry criteria includes age between 7 and 15 years, a DSM-IV diagnosis of AD/HD (any type), a DSM-IV tic disorder (any type), and a score of ≧1.5 standard deviation units for age and gender on the 10-item Conners hyperactivity index (Goyette et al., 1978, J. Abnorm. Child Psychol., 6: 221-236) rated by a teacher or parent. Exclusion criteria includes evidence of major depression, generalized anxiety disorder, separation anxiety disorder, or psychotic symptoms. Children with moderate or more severe tic symptoms (Yale Global Tic Severity Scale [[…] et al., 1989, J Am Acad Child Adolesc Psychiatry, 28: 566-573] total tic score of>22) or significant obsessive-compulsive symptoms (Children's Yale Brown Obsessive Compulsive Scale [[…] et al., 1997, J Am Acad Child Adolesc Psychiatry, 36: 844-852] total score>15) are also excluded. Before entry into the study the patients are tapered off their current medication. The participants in the study are randomly divided into two groups-milnacipran group and placebo control group. Each group consists of 5 patients. […] The patients in the placebo group are administered a placebo for 8 weeks. The patient's course is followed at visits with a primary clinician, who is blind to the patient's study group, every 2 weeks. The AD/HD rating scale, Clinical Global Impression global improvement score, and Yale Global Tic Severity Scale are used to follow the outcome measures. […] Each symptom was scored by the child's teacher from 0 to 3 (0=never [or rarely], 1=sometimes, 2=often, and 3=very often). […] A score of much improved or very much improved, reflecting meaningful improvement in AD/HD symptoms both at school and at home, is counted as a positive response. […]

NMDA receptor = settings: cited from earlier work
[2] = tested on: rats described in McGrath et al., 2000; test: animal model of tic disorder (McGrath et al., 2000); format: in vivo, rat; settings: 5, 10, 25 or 50 mg/kg over twenty-one days, before vs after administration
Procedure: The rats are divided into two groups: placebo and milnacipran. […] The milnacipran is administered to the rats over a period of twenty-one days.

[3] = tested on: spontaneously hypertensive rats (SHR); test: delayed gratification response paradigm in animal model of AD/HD; format: in vivo, rat; settings: 5, 10, 25 or 50 mg/kg over twenty-one days
Procedure: In this study, spontaneously hypertensive rats (SHR) are used as an animal model for AD/HD. The SHR animal model is described in Russell et al., 2000, Behavioral Brain Research, 117: 69-74; Russell, 2001, Metab. Brain Dis., 16: 143-149; and Sagvolden et al., 1992, Behav. Neural Biol., 58: 103-112. The study consists of two groups of rats: normal and SHR. Each group is further divided into two subgroups: placebo and milnacipran. […] The milnacipran is administered to the rats over a period of twenty-one days. The rats are from the normal and SHR groups are trained in the delayed gratification response paradigm as described in […] et al., 1996, Pharmacology and Biochemistry and Behavior, 54: 149-157. In this paradigm, rats learn to choose between five food pellets delivered after 30 seconds and one food pellet delivered after 5 seconds. Normal rats learn to choose the five food pellets delivered after 30 seconds at a higher frequency.

norepinephrine reuptake = settings: cited from earlier work

CCN(CC)C(=O)[C@]1(c2ccccc2)C[C@@H]1CN (racemic) [milnacipran, cis-(±)-2-(aminomethyl)-N,N-diethyl-1-phenyl-yclopropanecarboxamide]
AD/HD Rating Scale [1]: improvement | Clinical Global Improvement Scale [1]: improvement | Yale Global Tic Severity Scale [1]: improvement | IC50 (NMDA receptor): ~6.3 µM | abnormal behavior such as climbing/leaping, gnawing, and other tic-like behaviors [2]: reduces the abnormal behavior | time required by SHR rats to choose five food pellets delivered after 30 seconds at a higher frequency [3]: reduced, approaching the amount of time required by the normal rats | IC50 (norepinephrine reuptake): […]
